The source made the active and inactive calls. No cut-off for these calls is given here.
Columns and labels:
HepG2 [1] = test: Antioxidant activity in human HepG2 cells assessed as decrease in fluorescence level by measuring ratio of micromol of quercetin to 100 umol of compound after 2.5 hrs measured every 5 mins for 1 hr by DCFH-DA staining based fluorescence assay; format: functional; set-up: scale not given: the % may be the effect or the level left
HepG2 [2] = test: Antioxidant activity in human HepG2 cells assessed as decrease in fluorescence level after 2.5 hrs measured every 5 mins for 1 hr by DCFH-DA staining based fluorescence assay; format: functional, cell-based
Erythrocyte [3] = test: Cytoprotective activity in human erythrocytes assessed as inhibition of AAPH-induced oxidative hemolysis at 100 ug/ml preincubated for 30 mins followed by AAPH induction measured after 2 hrs by spectrophotometric analysis relative to control; format: functional
Erythrocyte [4] = test: Cytoprotective activity in human erythrocytes assessed as inhibition of AAPH-induced oxidative hemolysis preincubated for 30 mins followed by AAPH induction measured after 2 hrs by spectrophotometric analysis; format: functional, cell-based
Erythrocyte [5] = test: Inhibition of lipid peroxidation in human erythrocytes assessed as reduction in AAPH-induced malondialdehyde formation at 100 ug/ml preincubated for 20 mins followed by AAPH addition measured after 2 hrs by […] relative to untreated control; format: functional
Erythrocyte [6] = test: Inhibition of AAPH-induced oxidative hemolysis in human erythrocytes assessed as smooth and round surface at 100 ug/ml preincubated for 20 mins followed by AAPH addition measured after 2 hrs by scanning electron microscopic analysis; format: functional, cell-based
Catalase (Homo sapiens) = molecular target: T1, Catalase (Homo sapiens) (UniProt P04040); test: Reduction of catalase activity in human erythrocytes at 100 ug/ml preincubated followed by AAPH addition measured after 2 hrs; format: cell-based; set-up: scale not given: the % may be the effect or the level left
T1 sequence (whole entry): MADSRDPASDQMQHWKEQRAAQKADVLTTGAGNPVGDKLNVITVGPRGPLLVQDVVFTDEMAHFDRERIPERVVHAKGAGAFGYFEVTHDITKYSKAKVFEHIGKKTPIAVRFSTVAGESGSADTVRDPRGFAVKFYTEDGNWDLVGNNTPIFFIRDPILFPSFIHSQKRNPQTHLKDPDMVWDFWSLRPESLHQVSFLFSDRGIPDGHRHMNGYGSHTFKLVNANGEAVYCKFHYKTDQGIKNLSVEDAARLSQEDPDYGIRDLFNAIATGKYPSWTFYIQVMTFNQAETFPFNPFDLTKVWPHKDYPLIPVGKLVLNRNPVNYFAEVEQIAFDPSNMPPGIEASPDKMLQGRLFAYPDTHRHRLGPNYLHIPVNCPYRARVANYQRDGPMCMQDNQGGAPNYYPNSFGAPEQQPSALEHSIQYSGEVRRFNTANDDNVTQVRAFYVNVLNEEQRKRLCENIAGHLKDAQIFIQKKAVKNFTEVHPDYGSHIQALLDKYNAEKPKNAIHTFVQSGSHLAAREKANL

[7] = molecular target: Superoxide dismutase [Cu-Zn] (Homo sapiens) (UniProt P00441); test: Induction of superoxide dismutase activity in human erythrocytes at 100 ug/ml preincubated followed by AAPH addition measured after 2 hrs; format: cell-based
Homo sapiens = species on record: Homo sapiens; test: Induction of glutathione peroxidase activity in human erythrocytes at 100 ug/ml preincubated followed by AAPH addition measured after 2 hrs; format: cell-based
HepG2 [8] = test: Antioxidant activity in human HepG2 cells assessed as decrease in AAPH-induced ROS level at 100 ug/ml preincubated for 2 hrs followed by AAPH addition by DCFH-DA staining based microplate fluorometric analysis relative to control; format: functional; set-up: scale not given: the % may be the effect or the level left
A549 [9] = test: Antiproliferative activity against human A549 cells assessed as reduction in cell survival after 48 hrs by MTT assay; format: functional, cell-based
HeLa [10] = test: Antiproliferative activity against human HeLa cells assessed as reduction in cell survival after 48 hrs by MTT assay; format: functional, cell-based
SGC-7901 = test: Antiproliferative activity against human SGC7901 cells assessed as reduction in cell survival after 48 hrs by MTT assay; format: functional, cell-based
MCF7 [11] = test: Antiproliferative activity against human MCF7 cells assessed as reduction in cell survival after 48 hrs by MTT assay; format: functional, cell-based
A549 [12] = test: Antiproliferative activity against human A549 cells assessed as cell survival at 100 ug/ml after 48 hrs by MTT assay relative to control; format: functional; settings: A549, 48 h, read-out: Survival
HeLa [13] = test: Antiproliferative activity against human HeLa cells assessed as cell survival at 100 ug/ml after 48 hrs by MTT assay relative to control; format: functional; settings: read-out: Survival
[14] = Antiproliferative activity against human SGC7901 cells assessed as cell survival at 100 ug/ml after 48 hrs by MTT assay relative to control; format: functional; settings: SGC-7901, 48 h, read-out: Survival
MCF7 [15] = test: Antiproliferative activity against human MCF7 cells assessed as cell survival at 100 ug/ml after 48 hrs by MTT assay relative to control; format: functional; settings: MCF7, 48 h, read-out: Survival
MCF7 [16] = test: Induction of apoptosis in human MCF7 cells assessed as nuclear morphological deformity at 500 ug/ml after 12 hrs by scanning electron microscopic analysis; format: functional, cell-based
MCF7 [17] = test: Induction of apoptosis in human MCF7 cells assessed as chromatin condensation at 500 ug/ml after 12 hrs by scanning electron microscopic analysis; format: functional, cell-based
MCF7 [18] = test: Induction of apoptosis in human MCF7 cells assessed as cell shrinkage at 500 ug/ml after 24 hrs by scanning electron microscopic analysis; format: functional, cell-based
MCF7 [19] = test: Induction of apoptosis in human MCF7 cells assessed as cytoplasm overflow at 500 ug/ml after 24 hrs by scanning electron microscopic analysis; format: functional, cell-based
MCF7 [20] = test: Induction of apoptosis in human MCF7 cells assessed as morphological deformity at 500 ug/ml after 48 hrs by scanning electron microscopic analysis; format: functional, cell-based
MCF7 [21] = test: Induction of apoptosis in human MCF7 cells assessed as plasma membrane blebbing at 500 ug/ml after 48 hrs by scanning electron microscopic analysis; format: functional, cell-based
MCF7 [22] = test: Induction of apoptosis in human MCF7 cells assessed as apoptotic bodies at 500 ug/ml after 48 hrs by scanning electron microscopic analysis; format: functional, cell-based
MCF7 [23] = test: Induction of apoptosis in human MCF7 cells assessed as morphological changes at 500 ug/ml by scanning electron microscopic analysis; format: functional, cell-based; settings: TDE = time-dependent effect
MCF7 [24] = test: Induction of apoptosis in human MCF7 cells assessed as chromatin hypercondensation at 25 to 100 ug/ml after 48 hrs by Hoechst 33258 staining based fluorescence microscopic analysis; format: functional, cell-based
MCF7 [25] = test: Induction of apoptosis in human MCF7 cells assessed as mitochondrial membrane potential loss at 100 ug/ml after 48 hrs by JC-1 staining based fluorescence microscopic analysis; format: functional, cell-based

Sequence of Superoxide dismutase [Cu-Zn] (Homo sapiens) (P00441 whole entry): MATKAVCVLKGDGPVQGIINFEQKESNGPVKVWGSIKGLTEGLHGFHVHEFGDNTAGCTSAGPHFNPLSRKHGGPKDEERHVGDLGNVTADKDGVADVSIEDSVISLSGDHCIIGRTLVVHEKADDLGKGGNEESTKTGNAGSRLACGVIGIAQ

COc1ccc(-c2cc(=O)c3c(O)cc(O)cc3o2)cc1O [DIOSMETIN]
Activity (HepG2 [1]): 58%
EC50 (HepG2 [2]): 7.98 µmol

O=C(O[C@@H]1Cc2c(O)cc(O)cc2O[C@@H]1c1cc(O)c(O)c(O)c1)c1cc(O)c(O)c(O)c1 [EPIGALOCATECHIN GALLATE]
Activity (HepG2 [1]): 33.1%

O=c1c(O)c(-c2ccc(O)cc2)oc2cc(O)cc(O)c12 [KAEMPFEROL]
Activity (HepG2 [1]): 59.8%
Activity (HepG2 [2]): Dose-dependent effect
EC50 (HepG2 [2]): 7.74 µmol
inhibition at 100 µg/mL (Erythrocyte [3]): 87.4%
inhibition (Erythrocyte [4]): Dose-dependent effect
inhibition at 100 µg/mL (Erythrocyte [5]): 36.5%
inhibition (Erythrocyte [6]): Active
Activity (Catalase (Homo sapiens)): < 95.5%
Activity [7]: inactive
Activity (Homo sapiens): inactive
Activity (HepG2 [8]): 88.25%
Activity (A549 [9]): Dose-dependent effect
Activity (HeLa [10]): Dose-dependent effect
Activity (SGC-7901): Dose-dependent effect
Activity (MCF7 [11]): Dose-dependent effect
viability at 100 µg/mL (A549 [12]): 60.2%
viability at 100 µg/mL (HeLa [13]): 57.5%
viability at 100 µg/mL [14]: 59.2%
viability at 100 µg/mL (MCF7 [15]): 47.9%
Activity (MCF7 [16]): Active
Activity (MCF7 [17]): Active
Activity (MCF7 [18]): Active
Activity (MCF7 [19]): Active
Activity (MCF7 [20]): Active
Activity (MCF7 [21]): Active
Activity (MCF7 [22]): Active
Activity (MCF7 [23]): tde
Activity (MCF7 [24]): Active
Activity (MCF7 [25]): Active

O=c1cc(-c2ccc(O)c(O)c2)oc2cc(O)cc(O)c12 [LUTEOLIN]
Activity (HepG2 [1]): 32.3%

O=c1c(O)c(-c2cc(O)c(O)c(O)c2)oc2cc(O)cc(O)c12 [MYRICETIN]
Activity (HepG2 [1]): 36.8%

O=c1c(O)c(-c2ccc(O)c(O)c2)oc2cc(O)cc(O)c12 [QUERCETIN]
EC50 (HepG2 [2]): 4.63 µmol

Source: ChEMBL document CHEMBL3779891 (Eur J Med Chem, 2016)
